In US9023405B2, “Pharmaceutical composition using stryphnodendron extracts for treating HPV infections” (priority 2010, dated 2015):

Columns and labels:
[1] = system: human papillomavirus (HPV) lesions; settings: cited from earlier work; for rate of local relapses: direct application on moles
skin incisions = assay: healing tests (skin incisions); format: in vivo, albino rabbits of the New Zealand lineage; settings: daily topical treatment of incisions
Text: Thirty-six healthy adult albino rabbits of the New Zealand lineage weighing between 1.250 and 1.700 Kg were used for the healing tests. The animals were shaved and housed in individual cages at room temperature, in 12-hour light-dark cycles, with PURINA animal food and water ad libitum. The rabbits were anesthetized with local administration of lidocaine hydrochloride and inhalation of sulfuric ether. Four incisions were made on the skin of each rabbit until the subcutaneous layer was reached. A distance of 3 cm was maintained between each incision. The animals were divided into three groups. The group A, control, received NaCl 0.9% solution during the 14 days of treatment period. Group B was treated with rifamycin and group C received the ethanolic extract of barbatiman barks, resuspended in water (0.1 g mL^−1). The incisions remained open, and the rabbits were treated from the first day of the incision until the 14th day after the incision was made. On the 7th day, pieces were removed from ⅓ of the rabbits and part of the liver for histological analysis, and the animals were then killed. On 14th day, the remaining rabbits were killed, and the pieces and part of the liver were removed for histological analysis. […]

## CC(C)Cn1cnc2c(N)nc3ccccc3c21 [Imiquimod]
[1]; condyloma acuminata of external and perianal genitalia
  cure rate: 50-56%
[1]; in vivo
  patients with headache, myalgia, and flu-like symptoms: less than 5%

## O=C(O)C(Cl)Cl [dichloroacetic acid, dichloroacetic]
[1]
  rate of local relapses: around 30%

## CO[C@H]1/C=C/O[C@@]2(C)Oc3c(C)c(O)c4c(O)c(cc(O)c4c3C2=O)NC(=O)/C(C)=C\C=C\[C@H](C)[C@H](O)[C@@H](C)[C@@H](O)[C@@H](C)[C@H](OC(C)=O)[C@@H]1C [rifamycin]
Skin incisions
  purulent secretion: present purulent secretion

## O=C(O)C(Cl)(Cl)Cl [trichloroacetic acid, trichloroacetic acids]
[1]
  rate of local relapses: around 30%
